Results taken from patent US20050282841A1 (priority 2004, published 2005).

Columns and labels:
Assay type in all cases: in vivo
Conditions in all cases: on tomatoes, wheat and vine crops
[1] = test system: Late blight (Phytophthora infestans)
[2] = test system: Powdery mildew (Erisyphe araminis); assay: fungicidal effectiveness against Powdery mildew
[3] = test system: Brown rust (Puccinia recondita); assay: fungicidal effectiveness against Brown rust
[4] = test system: Septoria leaf spot (Septoria tritici); assay: fungicidal effectiveness against Septoria leaf spot

CO/C=C(/C(=O)OC(c1ccccc1)(c1cncnc1)c1ccc(Cl)cc1Cl)c1ccccc1Oc1cc(Oc2ccccc2C#N)ncn1 (racemic) [Example 1, (RS)-2,4-dichloro-α-(pyrimidin-5-yl)benzhydryl (E)-2-{2-[6-(2-cyanophenoxy)pyrimidin-4-yloxy]phenyl}-3-methoxyacrylate]
effective: effectiveness against fungal pathogen Late blight (Phytophthora infestans) [1] | effectiveness against fungal pathogen Powdery mildew (Erisyphe araminis) [2] | effectiveness against fungal pathogen Brown rust (Puccinia recondita) [3] | effectiveness against fungal pathogen Septoria leaf spot (Septoria tritici) [4]

CO/N=C(/C(=O)OC(Cn1cncn1)(c1ccc(Cl)cc1)C(C)C1CC1)c1ccccc1COc1ccccc1C (racemic) [Example 2, (2RS,3RS;2RS,3SR)-2-(4-chlorophenyl)-3-cyclopropyl-1-(1H-1,2,4-triazol-1-yl)butan-2-yl (E)-methoxyimino[α-(o-tolyloxy)-o-tolyl]acetate]
effective: effectiveness against fungal pathogen Late blight (Phytophthora infestans) [1] | effectiveness against fungal pathogen Powdery mildew (Erisyphe araminis) [2] | effectiveness against fungal pathogen Brown rust (Puccinia recondita) [3] | effectiveness against fungal pathogen Septoria leaf spot (Septoria tritici) [4]

CO/N=C(/C(=O)OC(CCc1ccc(Cl)cc1)(Cn1cncn1)C(C)(C)C)c1ccccc1CO/N=C(\C)c1cccc(C(F)(F)F)c1 (racemic) [Example 3, (RS)-1-p-chlorophenyl-4,4-dimethyl-3-(1H-1,2,4-triazol-1-ylmethyl)pentan-3-yl (E)-methoxyimino-{(E)-α-[1-(α,α,α-trifluoro-m-tolyl)ethylideneaminooxy]-o-tolyl}acetate]
effective: effectiveness against fungal pathogen Late blight (Phytophthora infestans) [1] | effectiveness against fungal pathogen Powdery mildew (Erisyphe araminis) [2] | effectiveness against fungal pathogen Brown rust (Puccinia recondita) [3] | effectiveness against fungal pathogen Septoria leaf spot (Septoria tritici) [4]
